Laboratory results published in patent US8192962B2, “Processes for detecting toxic substances” (Daikin Industries, Ltd., priority 2001, dated 2012).

Test system: Metabolism protein genes
Assay: DNA chip mRNA expression in yeast, metabolism protein genes (Table 7)
Format: cell-based, Saccharomyces cerevisiae S288C
Experimental: Yeast (Saccharomyces cerevisiae S288C (α SUC2mal mel gap2 CUP1)) were incubated at 25° C. on YPD medium (yeast extract 1%, polypepton 2%, glucose 2%). One of toxic chemical substances was added to the cells at logarithmic growth phase, and the cells were further incubated for two hours. Cells were cultured without any chemical substance in the same condition, and were used as control. Concentrations of the chemical substances were defined to inhibit the growth of the yeast but not lead to death.
After completion of the incubation, the culture was centrifuged to collect the cells. To the cells, sodium acetate buffer (50 mM sodium acetate, 10 mM EDTA, 1% SDS) was added, and the mixture was shaken at 65° C. for five minutes, followed by returning to room temperature, and obtaining the supernatant, of which the procedures were repeated two times. To the supernatant, ½ amount of a solution of phenol/chloroform was added, and the mixture was centrifuged to give a supernatant, which was added with an equal amount of chloroform, and the mixture was centrifuged to give a supernatant. To the supernatant, an equal amount of isopropanol containing 0.3 M sodium acetate was added, and the mixture was allowed to stand at room temperature for 30 minutes, after which the mixture was centrifuged to give a sediment of the whole RNAs. Seventy % ethanol was added to the sediment, and the mixture was again centrifuged to give a sediment, which was then dried and dissolved in water. mRNA was isolated from the whole RNAs as followings. In view of the fact that a poly A chain is attached to the 3′ terminus of mRNA, a polynucleotide having a poly T structure which was immobilized on the surface of latex beads was used to trap the mRNA, and then the mRNA was washed and eluted with spine column (Oligotex-dT30<Super>mRNA Purification Kit, Takara). Reverse transcription of the mRNA was conducted with a reverse transcriptase (Super Script II Reverse Transcriptase; catalogue No. 18064-014, GibcoBRL) using fluorescence-labeled nucleotides to give cDNAs that were introduced with Cy3-dUTP or Cy5-dUTP during the reverse transcription.
The labeled cDNAs were dissolved in TE buffer (10mM Tris-HCl/1 mM EDTA, pH8.0), and the solution was dropped on the DNA chip containing the whole genes of yeast (DNA Chip Research Inc. Japan) so that the cDNAs were hybridized on the DNA chip at 65° C. for over 12 hours. The fluoresces intensity of the DNA chip was read with a scanner, and the ratio relative to the fluorescence intensity resulting from the absence of chemical substance was estimated as the following, which is shown in Tables 1 to 9: […]

## CCCCCCCCCCCCc1ccc(S(=O)(=O)[O-])cc1.[Na+] [(17), sodium dodecylbenzosulfonate]
Yeast gene YAL012W
  The level of expressed mRNA in the presence of chemical substance/The level of expressed mRNA in the absence of chemical substance: 0.9
Yeast gene YAL038W
  The level of expressed mRNA in the presence of chemical substance/The level of expressed mRNA in the absence of chemical substance: 1.0
Yeast gene YBR003W
  level of expressed mRNA in the presence/in the absence of chemical substance: 1.1
Yeast gene YBR011C
  level of expressed mRNA in the presence/in the absence of chemical substance: 0.8
Yeast gene YBR020W
  level of expressed mRNA in the presence/in the absence of chemical substance: 0.8
Yeast gene YBR023C
  The level of expressed mRNA in the presence of chemical substance/The level of expressed mRNA in the absence of chemical substance: 0.7
Yeast gene YBR029C
  The level of expressed mRNA in the presence of chemical substance/The level of expressed mRNA in the absence of chemical substance: 0.6
Yeast gene YBR183W
  The level of expressed mRNA in the presence of chemical substance/The level of expressed mRNA in the absence of chemical substance: 1.4
Yeast gene YBR222C
  The level of expressed mRNA in the presence of chemical substance/The level of expressed mRNA in the absence of chemical substance: 0.8
Yeast gene YBR256C
  The level of expressed mRNA in the presence of chemical substance/The level of expressed mRNA in the absence of chemical substance: 2.6
Yeast gene YCL009C
  The level of expressed mRNA in the presence of chemical substance/The level of expressed mRNA in the absence of chemical substance: 1.1
Yeast gene YCL064C
  The level of expressed mRNA in the presence of chemical substance/The level of expressed mRNA in the absence of chemical substance: 0.3
Yeast gene YCR010C
  level of expressed mRNA in the presence/in the absence of chemical substance: 1.9
Yeast gene YCR034W
  level of expressed mRNA in the presence/in the absence of chemical substance: 0.9
Yeast gene YCR048W
  The level of expressed mRNA in the presence of chemical substance/The level of expressed mRNA in the absence of chemical substance: 1.2
Yeast gene YCR098C
  The level of expressed mRNA in the presence of chemical substance/The level of expressed mRNA in the absence of chemical substance: 1.7
Yeast gene YDR019C
  The level of expressed mRNA in the presence of chemical substance/The level of expressed mRNA in the absence of chemical substance: 1.2
Yeast gene YDR050C
  level of expressed mRNA in the presence/in the absence of chemical substance: 1.1
Yeast gene YDR073W
  level of expressed mRNA in the presence/in the absence of chemical substance: 1.8
Yeast gene YDR123C
  level of expressed mRNA in the presence/in the absence of chemical substance: 1.3
Yeast gene YDR178W
  level of expressed mRNA in the presence/in the absence of chemical substance: 1.2
Yeast gene YDR277C
  level of expressed mRNA in the presence/in the absence of chemical substance: 1.2
Yeast gene YDR284C
  level of expressed mRNA in the presence/in the absence of chemical substance: 1.5
Yeast gene YDR345C
  level of expressed mRNA in the presence/in the absence of chemical substance: 1.3
Yeast gene YDR380W
  The level of expressed mRNA in the presence of chemical substance/The level of expressed mRNA in the absence of chemical substance: 0.8
Yeast gene YDR400W
  level of expressed mRNA in the presence/in the absence of chemical substance: 1.1
Yeast gene YDR408C
  level of expressed mRNA in the presence/in the absence of chemical substance: 1.1
Yeast gene YDR483W
  level of expressed mRNA in the presence/in the absence of chemical substance: 1.2
Yeast gene YDR497C
  The level of expressed mRNA in the presence of chemical substance/The level of expressed mRNA in the absence of chemical substance: 1.6
Yeast gene YDR502C
  The level of expressed mRNA in the presence of chemical substance/The level of expressed mRNA in the absence of chemical substance: 0.9
Yeast gene YDR516C
  The level of expressed mRNA in the presence of chemical substance/The level of expressed mRNA in the absence of chemical substance: 1.1
Yeast gene YEL063C
  level of expressed mRNA in the presence/in the absence of chemical substance: 0.7
Yeast gene YER015W
  level of expressed mRNA in the presence/in the absence of chemical substance: 1.6
Yeast gene YER026C
  The level of expressed mRNA in the presence of chemical substance/The level of expressed mRNA in the absence of chemical substance: 1.7
Yeast gene YER053C
  The level of expressed mRNA in the presence of chemical substance/The level of expressed mRNA in the absence of chemical substance: 1.2
Yeast gene YER069W
  The level of expressed mRNA in the presence of chemical substance/The level of expressed mRNA in the absence of chemical substance: 1.1
Yeast gene YER081W
  level of expressed mRNA in the presence/in the absence of chemical substance: 1.1
Yeast gene YER096W
  The level of expressed mRNA in the presence of chemical substance/The level of expressed mRNA in the absence of chemical substance: 1.0
Yeast gene YER120W
  level of expressed mRNA in the presence/in the absence of chemical substance: 1.2
Yeast gene YER178W
  The level of expressed mRNA in the presence of chemical substance/The level of expressed mRNA in the absence of chemical substance: 1.1
Yeast gene YFL011W
  level of expressed mRNA in the presence/in the absence of chemical substance: 0.8
Yeast gene YFL014W
  The level of expressed mRNA in the presence of chemical substance/The level of expressed mRNA in the absence of chemical substance: 1.5
Yeast gene YFL030W
  The level of expressed mRNA in the presence of chemical substance/The level of expressed mRNA in the absence of chemical substance: 1.0
Yeast gene YFL031W
  The level of expressed mRNA in the presence of chemical substance/The level of expressed mRNA in the absence of chemical substance: 1.2
Yeast gene YFL056C
  The level of expressed mRNA in the presence of chemical substance/The level of expressed mRNA in the absence of chemical substance: 1.0
Yeast gene YFL057C
  The level of expressed mRNA in the presence of chemical substance/The level of expressed mRNA in the absence of chemical substance: 1.6
Yeast gene YFR047C
  The level of expressed mRNA in the presence of chemical substance/The level of expressed mRNA in the absence of chemical substance: 1.5
Yeast gene YGL012W
  level of expressed mRNA in the presence/in the absence of chemical substance: 0.9
Yeast gene YGL022W
  The level of expressed mRNA in the presence of chemical substance/The level of expressed mRNA in the absence of chemical substance: 0.9
Yeast gene YGL115W
  level of expressed mRNA in the presence/in the absence of chemical substance: 0.8
Yeast gene YGL126W
  The level of expressed mRNA in the presence of chemical substance/The level of expressed mRNA in the absence of chemical substance: 0.9
Yeast gene YGL205W
  level of expressed mRNA in the presence/in the absence of chemical substance: 3.9
Yeast gene YGL209W
  The level of expressed mRNA in the presence of chemical substance/The level of expressed mRNA in the absence of chemical substance: 1.1
Yeast gene YGL248W
  The level of expressed mRNA in the presence of chemical substance/The level of expressed mRNA in the absence of chemical substance: 1.1
Yeast gene YGR037C
  The level of expressed mRNA in the presence of chemical substance/The level of expressed mRNA in the absence of chemical substance: 1.4
Yeast gene YGR055W
  The level of expressed mRNA in the presence of chemical substance/The level of expressed mRNA in the absence of chemical substance: 0.7
Yeast gene YGR096W
  level of expressed mRNA in the presence/in the absence of chemical substance: 0.8
Yeast gene YGR191W
  level of expressed mRNA in the presence/in the absence of chemical substance: 0.8
Yeast gene YGR194C
  The level of expressed mRNA in the presence of chemical substance/The level of expressed mRNA in the absence of chemical substance: 1.1
Yeast gene YGR204W
  level of expressed mRNA in the presence/in the absence of chemical substance: 1.0
Yeast gene YGR256W
  The level of expressed mRNA in the presence of chemical substance/The level of expressed mRNA in the absence of chemical substance: 1.1
Yeast gene YGR282C
  The level of expressed mRNA in the presence of chemical substance/The level of expressed mRNA in the absence of chemical substance: 1.1
Yeast gene YGR288W
  level of expressed mRNA in the presence/in the absence of chemical substance: 1.2
Yeast gene YHR025W
  level of expressed mRNA in the presence/in the absence of chemical substance: 1.0
Yeast gene YHR111W
  The level of expressed mRNA in the presence of chemical substance/The level of expressed mRNA in the absence of chemical substance: 1.1
Yeast gene YHR123W
  level of expressed mRNA in the presence/in the absence of chemical substance: 1.1
Yeast gene YHR137W
  The level of expressed mRNA in the presence of chemical substance/The level of expressed mRNA in the absence of chemical substance: 0.8
Yeast gene YHR174W
  The level of expressed mRNA in the presence of chemical substance/The level of expressed mRNA in the absence of chemical substance: 1.0
Yeast gene YHR176W
  The level of expressed mRNA in the presence of chemical substance/The level of expressed mRNA in the absence of chemical substance: 1.4
Yeast gene YHR210C
  level of expressed mRNA in the presence/in the absence of chemical substance: 1.4
Yeast gene YIL006W
  level of expressed mRNA in the presence/in the absence of chemical substance: 0.8
Yeast gene YIL045W
  The level of expressed mRNA in the presence of chemical substance/The level of expressed mRNA in the absence of chemical substance: 1.1
Yeast gene YIL107C
  The level of expressed mRNA in the presence of chemical substance/The level of expressed mRNA in the absence of chemical substance: 1.2
Yeast gene YIL154C
  The level of expressed mRNA in the presence of chemical substance/The level of expressed mRNA in the absence of chemical substance: 1.2
Yeast gene YIL155C
  The level of expressed mRNA in the presence of chemical substance/The level of expressed mRNA in the absence of chemical substance: 1.1
Yeast gene YIR034C
  The level of expressed mRNA in the presence of chemical substance/The level of expressed mRNA in the absence of chemical substance: 1.0
Yeast gene YIR036C
  The level of expressed mRNA in the presence of chemical substance/The level of expressed mRNA in the absence of chemical substance: 1.5
Yeast gene YJL031C
  The level of expressed mRNA in the presence of chemical substance/The level of expressed mRNA in the absence of chemical substance: 1.2
Yeast gene YJL068C
  The level of expressed mRNA in the presence of chemical substance/The level of expressed mRNA in the absence of chemical substance: 1.4
Yeast gene YJL088W
  The level of expressed mRNA in the presence of chemical substance/The level of expressed mRNA in the absence of chemical substance: 1.4
Yeast gene YJL099W
  The level of expressed mRNA in the presence of chemical substance/The level of expressed mRNA in the absence of chemical substance: 1.2
Yeast gene YJL121C
  level of expressed mRNA in the presence/in the absence of chemical substance: 1.1
Yeast gene YJL167W
  level of expressed mRNA in the presence/in the absence of chemical substance: 1.4
Yeast gene YJL172W
  The level of expressed mRNA in the presence of chemical substance/The level of expressed mRNA in the absence of chemical substance: 1.8
Yeast gene YJL216C
  level of expressed mRNA in the presence/in the absence of chemical substance: 1.2
Yeast gene YJL219W
  The level of expressed mRNA in the presence of chemical substance/The level of expressed mRNA in the absence of chemical substance: 1.6
Yeast gene YJR077C
  level of expressed mRNA in the presence/in the absence of chemical substance: 1.0
Yeast gene YJR137C
  The level of expressed mRNA in the presence of chemical substance/The level of expressed mRNA in the absence of chemical substance: 0.9
Yeast gene YJR143C
  level of expressed mRNA in the presence/in the absence of chemical substance: 0.7
Yeast gene YJR148W
  The level of expressed mRNA in the presence of chemical substance/The level of expressed mRNA in the absence of chemical substance: 1.3
